Data from patent publication US20230105212A1, “BIPHENYL DERIVATIVE INHIBITOR, PREPARATION METHOD THEREFOR AND USE THEREOF” (SHANGHAI HANSOH BIOMEDICAL CO., LTD., priority 2020, published 2023).
Where two headings read alike, the source gives them in different places.

How the values were obtained:
human PD-1/PD-L1 binding = target: T1, human PD-1/PD-L1 binding (Homo sapiens, UniProt Q9NZQ7); experiment: Inhibition of human PD-1/PD-L1 binding (TR-FRET/HTRF); details: TR-FRET, PD-L1-His and PD-1-Fc; read-out: PD-1/PD-L1 binding IC50
T1 construct: PD-L1-His protein (19 to 238 amino acids) (Abcam #ab167713); purchased Abcam (PD-L1-His); R&D (PD-1-Fc) ab167713; 1086-PD
Outline: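 PD-L1-His (aa 19–238, diluted to 10 nM) and PD-1-Fc (aa 25–167, diluted to 20 nM) incubated with compounds (10 μM or 1 μM top, 3-fold, 11 doses) 60 min at room temperature, then anti-6HIS Eu cryptate/anti-human IgG-XL665 added for 3 h RT or overnight 4 °C. HTRF 665/620 nm ratio gave inhibition and IC50.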

human PD-L1 protein = target: T2, human PD-L1 protein (Homo sapiens, UniProt Q9NZQ7); experiment: Thermal shift: melting temperature of PD-L1 protein; type: binding; details: read-out: ΔTm (° C.)
T2 construct: purchased Acro Biosystems PD1-H5229
Method: Test Embodiment 4. Test of Combination of the Compounds of the Present Disclosure to Improve the Stability (Melting Temperature) of PD-L1 Protein Experimental purpose: To test the ability of compounds to enhance the stability of PD-L1 protein and increase the melting temperature of the protein. Experimental method: […] A solution containing […] HEPES, SYPRO Orange, and 150 mM NaCl was prepared as experimental buffer, and human PD-L1 protein was added at a final concentration of 2 μM. […] PCR tube was put into the PCR machine, and the melt curve function was selected to detect the melting temperature of PD-L1 protein in different treatment groups (heated from 25° C. to 95° C., 0.03° C./s). The experimental data file of the PCR instrument was imported into the thermal shift software to obtain the melting temperature (Tm) of each treatment group, and the Tm of the DMSO vehicle control group was subtracted to obtain the change value (ΔTm) of the melting temperature, as shown in the following table: […]

[1] = target: T3, PD-L1 protein on the surface of MC38-hPDL1 tumor cells (Homo sapiens, UniProt Q9NZQ7); experiment: Induction of endocytosis of PD-L1 on the surface of tumor cells (flow cytometry); type: cell-based; details: 16 hours incubation; for Emax: MC38-hPDL1 cells, read-out: MC38 maximum endocytosis rate; for IC50: inducing endocytosis of PD-L1, MC38-hPDL1 cells, read-out: MC38 IC50
T3 construct: expressed in transfected cells; host or cells: MC38-hPDL1 (mouse colon cancer cells)
Outline: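 IC50 comes from nonlinear fits of endocytosis rate, calculated from the loss of surface PE-anti-CD274 flow signal relative to vehicle. Cells were MC38 mouse colon cancer cells engineered to express high human PD-L1. Compound exposure lasted 16 h at 37 °C, 5% CO2.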

[2] = compound 10 μM, PD-L1 protein 2 μM, Tm minus DMSO vehicle control

T3 sequence (Q9NZQ7 19-290): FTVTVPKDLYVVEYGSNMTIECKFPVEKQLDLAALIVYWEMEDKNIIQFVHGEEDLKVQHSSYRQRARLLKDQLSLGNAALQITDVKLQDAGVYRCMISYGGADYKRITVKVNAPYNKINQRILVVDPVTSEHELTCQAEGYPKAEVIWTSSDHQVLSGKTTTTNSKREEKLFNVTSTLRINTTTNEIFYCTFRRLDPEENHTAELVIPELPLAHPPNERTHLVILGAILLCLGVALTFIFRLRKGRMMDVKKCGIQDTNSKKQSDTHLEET
T1 sequence (Q9NZQ7 19-238): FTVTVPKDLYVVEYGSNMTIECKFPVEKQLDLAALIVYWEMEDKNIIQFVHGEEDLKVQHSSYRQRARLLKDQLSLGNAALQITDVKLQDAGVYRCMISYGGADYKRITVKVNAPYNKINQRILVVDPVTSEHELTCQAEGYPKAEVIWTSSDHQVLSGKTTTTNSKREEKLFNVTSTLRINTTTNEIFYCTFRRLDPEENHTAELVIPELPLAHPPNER
T2 sequence (Q9NZQ7 19-238 limits assumed): as the sequence (Q9NZQ7 19-238) above

SMILES | IC50 (human PD-1/PD-L1 binding) [nM] | ΔTm at 10 µM (human PD-L1 protein; [2]) [°C] | Emax [1] [%] | ΔTm at 10 µM (human PD-L1 protein) [°C] | IC50 [1] [nM]
COc1nc(-c2cccc(-c3cccc(NC(=O)c4nc5c(n4C)CCN(C)C5)c3Cl)c2Cl)ccc1CN1CC[C@H]1CO [Embodiment 172, (S)—N-(2,2′-Dichloro-3′-(5-((2-(hydroxymethyl)azetidin-1-yl)methyl)-6-methoxypyridin-2-yl)-[1,1′-biphenyl]-3-yl)-1,5-dimethyl-4,5,6,7-tetrahydro-1H-imidazo[4,5-c]pyridine-2-carboxamide] | 6.3 |  | 94 | 13.9 | 
COc1nc(-c2cccc(-c3cccc(NC(=O)c4nc5c(n4C)CCN(C)C5)c3Cl)c2Cl)ccc1CN1CC(C)(O)C1 [Embodiment 130, N-(2,2′-Dichloro-3′-(5-((3-hydroxy-3-methylazetidin-1-yl)methyl)-6-methoxypyridin-2-yl)-[1,1′-biphenyl]-3-yl)-1,5-dimethyl-4,5,6,7-tetrahydro-1H-imidazo[4,5-c]pyridine-2-carboxamide] | 4.8 |  | 97 | 18.1 | 1.2
COc1nc(-c2cccc(-c3cccc(NC(=O)c4nc5c(n4C)CCN(C)C5)c3Cl)c2Cl)ccc1CN1CC(O)C1 [Embodiment 129, N-(2,2′-Dichloro-3′-(5-((3-hydroxyazetidin-1-yl)methyl)-6-methoxypyridin-2-yl)-[1,1′-biphenyl]-3-yl)-1,5-dimethyl-4,5,6,7-tetrahydro-1H-imidazo[4,5-c]pyridine-2-carboxamide] | 2.9 |  | 95 | 13.9 | 1
COc1nc(-c2cccc(-c3cccc(NC(=O)c4nc5c(n4C)CCN(C)C5)c3Cl)c2Cl)ccc1CN1CC2(CCCO2)C1 [Embodiment 125, N-(3′-(5-((5-Oxa-2-azaspiro[3.4]octan-2-yl)methyl)-6-methoxypyridin-2-yl)-2,2′-dichloro-[1,1′-biphenyl]-3-yl)-1,5-dimethyl-4,5,6,7-tetrahydro-1H-imidazo[4,5-c]pyridine-2-carboxamide] | 8.4 |  | 96 | 15.6 | 0.7
COc1nc(-c2cccc(-c3cccc(NC(=O)c4nc5c(n4C)CCN(C)C5)c3Cl)c2Cl)ccc1CN1CC(C(=O)O)C1 [Embodiment 135, 1-((6-(2,2′-Dichloro-3′-(1,5-dimethyl-4,5,6,7-tetrahydro-1H-imidazo[4,5-c]pyridine-2-carboxamido)-[1,1′-biphenyl]-3-yl)-2-methoxypyridin-3-yl)methyl)azetidine-3-carboxylic Acid] | 1.2 | 16.7 | 98 |  | 3.1
COc1nc(-c2cccc(-c3cccc(NC(=O)c4nc5c(n4C)CCN(C)C5)c3Cl)c2Cl)ccc1CN1CCN(C(=O)CC#N)CC1 [Embodiment 198, N-(2,2′-Dichloro-3′-(5-((4-(2-cyanoacetyl)piperazin-1-yl)methyl)-6-methoxypyridin-2-yl)-[1,1′-biphenyl]-3-yl)-1,5-dimethyl-4,5,6,7-tetrahydro-1H-imidazo[4,5-c]pyridine-2-carboxamide] | 9.6 | 12 | 94 |  | 
COc1nc(-c2cccc(-c3cccc(NC(=O)c4nc5c(n4C)CCN(C)C5)c3Cl)c2Cl)ccc1CN1C[C@@H]2C[C@H]1CN2C(C)=O [Embodiment 205, N-(3′-(5-(((1S,4S)-5-Acetyl-2,5-diazabicyclo[2.2.1]heptan-2-yl)methyl)-6-methoxypyridin-2-yl)-2,2′-dichloro-[1,1′-biphenyl]-3-yl)-1,5-dimethyl-4,5,6,7-tetrahydro-1H-imidazo[4,5-c]pyridine-2-carboxamide] | 8.8 | 13.3 | 96 |  | 
COc1nc(-c2cccc(-c3cccc(NC(=O)c4nc5c(n4C4CC4)CCN(C)C5)c3Cl)c2Cl)ccc1CN1CC2(CC(NC(C)=O)C2)C1 [Embodiment 246, N-(3′-(5-((6-Acetylamino-2-azaspiro[3.3]heptan-2-yl)methyl)-6-methoxypyridin-2-yl)-2,2′-dichloro-[1,1′-biphenyl]-3-yl)-1-cyclopropyl-5-methyl-4,5,6,7-tetrahydro-1H-imidazo[4,5-c]pyridine-2-carboxamide] | 5.4 | 11 | 94 |  | 
COc1nc(-c2cccc(-c3cccc(NC(=O)c4nc5c(n4C)CCN(C)C5)c3Cl)c2Cl)ccc1CN1CC2(CC(O)C2)C1 [Embodiment 185, N-(2,2′-Dichloro-3′-(5-((6-hydroxy-2-azaspiro[3.3]heptan-2-yl)methyl)-6-methoxypyridin-2-yl)-[1,1′-biphenyl]-3-yl)-1,5-dimethyl-4,5,6,7-tetrahydro-1H-imidazo[4,5-c]pyridine-2-carboxamide] | 5.3 | 20.9 | 97 |  | 0.7

Now from value to molecule, other results behind:

IC50 (human PD-1/PD-L1 binding) [nM] | ΔTm at 10 µM (human PD-L1 protein; [2]) [°C] | Emax [1] [%] | SMILES | ΔTm at 10 µM (human PD-L1 protein) [°C] | IC50 [1] [nM]
4.1 | 10.8 | 95 | CCn1c(C(=O)Nc2cccc(-c3cccc(-c4ccc(CN5CC6(C5)CN(C(C)=O)C6)c(OC)n4)c3Cl)c2Cl)nc2c1CCN(C)C2 [Embodiment 238, N-(3′-(5-((6-Acetyl-2,6-diazaspiro[3.3]heptan-2-yl)methyl)-6-methoxypyridin-2-yl)-2,2′-dichloro-[1,1′-biphenyl]-3-yl)-1-ethyl-5-methyl-4,5,6,7-tetrahydro-1H-imidazo[4,5-c]pyridine-2-carboxamide] |  | 
3.2 | 12 | 95 | COc1nc(-c2cccc(-c3cccc(NC(=O)c4nc5c(n4C)CCN(C)C5)c3Cl)c2Cl)ncc1CNCCO [Embodiment 229, N-(2,2′-Dichloro-3′-(5-(((2-hydroxyethyl)amino)methyl)-4-methoxypyrimidin-2-yl)-[1,1′-biphenyl]-3-yl)-1,5-dimethyl-4,5,6,7-tetrahydro-1H-imidazo[4,5-c]pyridine-2-carboxamide] |  | 
5.2 | 11.6 | 94 | CCn1c(C(=O)Nc2cccc(-c3cccc(-c4ccc(CN5CC6(COC6)C5)c(OC)n4)c3Cl)c2Cl)nc2c1CCN(C)C2 [Embodiment 237, N-(3′-(5-((2-Oxa-6-azaspiro[3.3]heptan-6-yl)methyl)-6-methoxypyridin-2-yl)-2,2′-dichloro-[1,1′-biphenyl]-3-yl)-1-ethyl-5-methyl-4,5,6,7-tetrahydro-1H-imidazo[4,5-c]pyridine-2-carboxamide] |  | 
7.9 | 12.3 | 96 | COc1nc(-c2cccc(-c3cccc(NC(=O)c4nc5c(n4C)CCN(C)C5)c3Cl)c2Cl)ccc1CNC1CN(C(C)=O)C1 [Embodiment 179, N-(3′-(5-(((1-Acetylazetidin-3-yl)amino)methyl)-6-methoxypyridin-2-yl)-2,2′-dichloro-[1,1′-biphenyl]-3-yl)-1,5-dimethyl-4,5,6,7-tetrahydro-1H-imidazo[4,5-c]pyridine-2-carboxamide] |  | 
1.7 | 11.1 | 94 | COc1nc(-c2cccc(-c3cccc(NC(=O)c4nc5c(n4C)CCN(C)C5)c3Cl)c2Cl)ccc1CN[C@@H](CO)C(=O)O [Embodiment 232, ((6-(2,2′-Dichloro-3′-(1,5-dimethyl-4,5,6,7-tetrahydro-1H-imidazo[4,5-c]pyridine-2-carboxamido)-[1,1′-biphenyl]-3-yl)-2-methoxypyridin-3-yl)methyl)-L-serine] |  | 
4.8 | 11.7 | 97 | COc1nc(-c2cccc(-c3cccc(NC(=O)c4nc5c(n4C)CCN(C)C5)c3Cl)c2Cl)ccc1CN1CC2(C1)CN(C(=O)CC#N)C2 [Embodiment 191, N-(2,2′-Dichloro-3′-(5-((6-(2-cyanoacetyl)-2,6-diazaspiro[3.3]heptan-2-yl)methyl)-6-methoxypyridin-2-yl)-[1,1′-biphenyl]-3-yl)-1,5-dimethyl-4,5,6,7-tetrahydro-1H-imidazo[4,5-c]pyridine-2-carboxamide] |  | 
3.5 | 14.8 | 97 | COc1nc(-c2cccc(-c3cccc(NC(=O)c4nc5c(n4C)CCN(C)C5)c3Cl)c2Cl)ccc1CN1CC(OC(C)=O)C1 [Embodiment 122, 1-((6-(2,2′-Dichloro-3′-(1,5-dimethyl-4,5,6,7-tetrahydro-1H-imidazo[4,5-c]pyridine-2-carboxamido)-[1,1′-biphenyl]-3-yl)-2-methoxypyridin-3-yl)methyl)azetidin-3-yl acetate] |  | 0.4
